Data reported in patent US20260256792A1, “TREATMENT OF CHRONIC SPONTANEOUS URTICARIA BY ADMINISTERING (R)-2-[3-[4-AMINO-3-(2-FLUORO-4-PHENOXY-PHENYL)PYRAZOLO[3,4-D]PYRIMIDIN-1-YL]PIPERIDINE-1-CARBONYL]-4-METHYL-4-[4-(OXETAN-3-YL)PIPERAZIN-1-YL]PENT-2-ENENITRILE” (priority 2023, published 2026).

System: moderate-to-severe chronic spontaneous urticaria (CSU)
Experiment: Phase 2 CSU study: itch severity score over 7 days (ISS7)
Format: in vivo, human
Settings: for Change from Baseline in ISS7 at Week 12, LS Mean / Change from Baseline in ISS7 at Week 12, LS Mean Diff vs. placebo / Change from Baseline in ISS7 at Week 12, Mean: Omalizumab-naïve population; for ISS7 change from baseline at Week 12, LS Mean / ISS7 change from baseline at Week 12, LS Mean Diff vs. placebo: ANCOVA
Description: The study comprises a 12 week, randomized, double-blind, placebo-controlled, multi-center, dose-ranging efficacy and safety phase, followed by a 40 week open label extension (OLE) phase (see FIG. 1). The study consists of three phases and an optional OLE phase. […] Clinically, CSU is characterized by the spontaneous and recurrent appearance of pruritic hives. The proposed primary endpoints were the UAS7 at Week 12 in EU and EU reference countries and the ISS7 in the US. Regardless of where a participant was from, all assessments were the same. The UAS7 score is a composite score containing both the HSS7 and the ISS7. This allowed a global assessment of the two key components of urticaria: hives and itch. […] The UAS is a validated PRO measure. […] The daily UAS scores range from 0 to 6 point/day. […] Patients were to complete the UAS using the e-diary. […] The following secondary endpoints were to be analyzed using the same approach as for the primary endpoint: • Change from baseline in UAS7 at Week 4 • Change from baseline in UAS7 at Week 12 (for US and US reference countries) • Change from baseline in ISS7 at Week 12 (except US and US reference countries) • Change from baseline in HSS7 at Week 12

[1] = 400 mg QPM, Duration of disease (years) <2
[2] = 400 mg QPM, Duration of disease (years) >10
[3] = 400 mg QPM, Ethnicity Non-Hispanic
[4] = 400 mg QPM, History of angioedema No
[5] = 400 mg QPM, History of angioedema Yes
[6] = 400 mg QPM, Race All the Others
[7] = 400 mg QPM, Region Eastern Europe
[8] = 400 mg QPM, Region Latin America
[9] = 400 mg QPM, Region Western Countries
[10] = 400 mg QPM, omalizumab-naïve population
[11] = 400 mg QPM, omalizumab-naïve population with outlier removed
[12] = 400 mg TID, Age group (years) <44 (Median)
[13] = 400 mg TID, Age group (years) <65
[14] = 400 mg TID, Age group (years) ≥44 (Median)
[15] = 400 mg TID, Baseline BHRA BHRA+
[16] = 400 mg TID, Baseline BHRA BHRA−
[17] = 400 mg TID, Baseline Eosinophils (10^9/L) <0.150
[18] = 400 mg TID, Baseline Eosinophils (10^9/L) <0.165 (Median)
[19] = 400 mg TID, Baseline Eosinophils (10^9/L) <0.3
[20] = 400 mg TID, Baseline Eosinophils (10^9/L) ≥0.150
[21] = 400 mg TID, Baseline Eosinophils (10^9/L) ≥0.165 (Median)
[22] = 400 mg TID, Baseline Eosinophils (10^9/L) ≥0.3
[23] = 400 mg TID, Baseline H1-antihistamines dose 1-fold
[24] = 400 mg TID, Baseline H1-antihistamines dose 2 to 4-fold standard dose

SMILES: CC(C)(C=C(C#N)C(=O)N1CCC[C@@H](n2nc(-c3ccc(Oc4ccccc4)cc3F)c3c(N)ncnc32)C1)N1CCN(C2COC2)CC1 [rilzabrutinib, (R)-2-[3-[4-amino-3-(2-fluoro-4-phenoxy-phenyl)pyrazolo[3,4-d]pyrimidin-1-yl]piperidine-1-carbonyl]-4-methyl-4-[4-(oxetan-3-yl)piperazin-1-yl]pent-2-enenitrile]
- Change from Baseline in ISS7 at Week 12, LS Mean [1]: −4.83
- Change from Baseline in ISS7 at Week 12, LS Mean Diff vs. placebo [1]: −1.18
- Change from Baseline in ISS7 at Week 12, Mean [1]: −5.46
- Change from Baseline in ISS7 at Week 12, LS Mean [2]: −0.20
- Change from Baseline in ISS7 at Week 12, LS Mean Diff vs. placebo [2]: 3.49
- Change from Baseline in ISS7 at Week 12, Mean [2]: −3.29
- Change from Baseline in ISS7 at Week 12, LS Mean (400 mg QPM, Ethnicity Hispanic): −4.19
- Change from Baseline in ISS7 at Week 12, LS Mean Diff vs. placebo (400 mg QPM, Ethnicity Hispanic): 2.82
- Change from Baseline in ISS7 at Week 12, Mean (400 mg QPM, Ethnicity Hispanic): −5.04
- Change from Baseline in ISS7 at Week 12, LS Mean [3]: −5.29
- Change from Baseline in ISS7 at Week 12, LS Mean Diff vs. placebo [3]: −0.82
- Change from Baseline in ISS7 at Week 12, Mean [3]: −6.12
- Change from Baseline in ISS7 at Week 12, Mean (400 mg QPM, Gender Female): −5.86
- Change from Baseline in ISS7 at Week 12, Mean (400 mg QPM, Gender Male): −5.20
- Change from Baseline in ISS7 at Week 12, LS Mean [4]: −4.56
- Change from Baseline in ISS7 at Week 12, LS Mean Diff vs. placebo [4]: 0.78
- Change from Baseline in ISS7 at Week 12, Mean [4]: −5.32
- Change from Baseline in ISS7 at Week 12, LS Mean [5]: −5.00
- Change from Baseline in ISS7 at Week 12, LS Mean Diff vs. placebo [5]: 0.25
- Change from Baseline in ISS7 at Week 12, Mean [5]: −6.31
- ISS7 at Week 12, Mean (400 mg QPM, ITT population): 11.37
- ISS7 at Week 12, Median (400 mg QPM, ITT population): 11.20
- ISS7 change from baseline at Week 12, Mean (400 mg QPM, ITT population): −5.95
- ISS7 change from baseline at Week 12, Median (400 mg QPM, ITT population): −5.67
- ISS7 change from baseline at Week 12, LS Mean (400 mg QPM, ITT population): −5.46 points
- ISS7 change from baseline at Week 12, LS Mean Diff vs. placebo (400 mg QPM, ITT population): 0.85
- Change from Baseline in ISS7 at Week 12, LS Mean [6]: −4.94
- Change from Baseline in ISS7 at Week 12, LS Mean Diff vs. placebo [6]: −1.48
- Change from Baseline in ISS7 at Week 12, Mean [6]: −5.66
- Change from Baseline in ISS7 at Week 12, LS Mean (400 mg QPM, Race White): −4.41
- Change from Baseline in ISS7 at Week 12, LS Mean Diff vs. placebo (400 mg QPM, Race White): 1.60
- Change from Baseline in ISS7 at Week 12, Mean (400 mg QPM, Race White): −5.70
- Change from Baseline in ISS7 at Week 12, LS Mean (400 mg QPM, Region Asia): −5.17
- Change from Baseline in ISS7 at Week 12, LS Mean Diff vs. placebo (400 mg QPM, Region Asia): −1.72
- Change from Baseline in ISS7 at Week 12, Mean (400 mg QPM, Region Asia): −5.66
- Change from Baseline in ISS7 at Week 12, LS Mean [7]: −4.74
- Change from Baseline in ISS7 at Week 12, LS Mean Diff vs. placebo [7]: 7.93
- Change from Baseline in ISS7 at Week 12, Mean [7]: −5.54
- Change from Baseline in ISS7 at Week 12, LS Mean [8]: −5.19
- Change from Baseline in ISS7 at Week 12, LS Mean Diff vs. placebo [8]: 1.40
- Change from Baseline in ISS7 at Week 12, Mean [8]: −6.51
- Change from Baseline in ISS7 at Week 12, LS Mean [9]: −3.02
- Change from Baseline in ISS7 at Week 12, LS Mean Diff vs. placebo [9]: 1.53
- Change from Baseline in ISS7 at Week 12, Mean [9]: −4.61
- ISS7 at Week 12, Median [10]: 11.60
- ISS7 change from baseline at Week 12, Mean [10]: −5.69
- ISS7 change from baseline at Week 12, Median [10]: −5.33
- ISS7 at Week 12, Median [11]: 11.60
- ISS7 change from baseline at Week 12, Mean [11]: −5.69
- ISS7 change from baseline at Week 12, Median [11]: −5.33
- ISS7 change from baseline at Week 12, LS Mean [11]: −5.29 points
- ISS7 change from baseline at Week 12, LS Mean Diff vs. placebo [11]: 0.42
- ISS7 change from baseline at Week 12, LS Mean [10]: −5.19 points
- ISS7 change from baseline at Week 12, LS Mean Diff vs. placebo [10]: 0.58
- patients with improvement in the weekly ISS7 (400 mg TID arm): all patients except one showed improvement
- Change from Baseline in ISS7 at Week 12, LS Mean [12]: −9.04
- Change from Baseline in ISS7 at Week 12, LS Mean Diff vs. placebo [12]: −4.56
- Change from Baseline in ISS7 at Week 12, LS Mean [13]: −8.63
- Change from Baseline in ISS7 at Week 12, LS Mean Diff vs. placebo [13]: −2.97
- Change from Baseline in ISS7 at Week 12, Mean [13]: −9.73
- Change from Baseline in ISS7 at Week 12, LS Mean [14]: −9.26
- Change from Baseline in ISS7 at Week 12, LS Mean Diff vs. placebo [14]: −2.66
- Change from Baseline in ISS7 at Week 12, Mean [14]: −10.16
- Change from Baseline in ISS7 at Week 12, Mean (400 mg TID, Age group (years) ≥65): −13.50
- Change from Baseline in ISS7 at Week 12, LS Mean [15]: −12.96
- Change from Baseline in ISS7 at Week 12, LS Mean Diff vs. placebo [15]: −7.58
- Change from Baseline in ISS7 at Week 12, Mean [15]: −12.42
- Change from Baseline in ISS7 at Week 12, LS Mean [16]: −8.82
- Change from Baseline in ISS7 at Week 12, Mean [16]: −9.91
- Change from Baseline in ISS7 at Week 12, LS Mean Diff vs. placebo (400 mg TID, Baseline BMI (kg/m^2) ≥30): −3.19
- Change from Baseline in ISS7 at Week 12, LS Mean [17]: −10.28
- Change from Baseline in ISS7 at Week 12, LS Mean Diff vs. placebo [17]: −3.50
- Change from Baseline in ISS7 at Week 12, LS Mean [18]: −10.22
- Change from Baseline in ISS7 at Week 12, LS Mean Diff vs. placebo [18]: −3.71
- Change from Baseline in ISS7 at Week 12, Mean [18]: −10.99
- Change from Baseline in ISS7 at Week 12, LS Mean [19]: −9.46
- Change from Baseline in ISS7 at Week 12, LS Mean Diff vs. placebo [19]: −3.99
- Change from Baseline in ISS7 at Week 12, Mean [19]: −10.61
- Change from Baseline in ISS7 at Week 12, LS Mean [20]: −8.30
- Change from Baseline in ISS7 at Week 12, LS Mean Diff vs. placebo [20]: −4.31
- Change from Baseline in ISS7 at Week 12, LS Mean [21]: −8.24
- Change from Baseline in ISS7 at Week 12, LS Mean Diff vs. placebo [21]: −4.16
- Change from Baseline in ISS7 at Week 12, Mean [21]: −9.55
- Change from Baseline in ISS7 at Week 12, LS Mean [22]: −8.12
- Change from Baseline in ISS7 at Week 12, LS Mean Diff vs. placebo [22]: −3.27
- Change from Baseline in ISS7 at Week 12, Mean [22]: −8.68
- Change from Baseline in ISS7 at Week 12, LS Mean [23]: −8.05
- Change from Baseline in ISS7 at Week 12, LS Mean Diff vs. placebo [23]: −1.22
- Change from Baseline in ISS7 at Week 12, Mean [23]: −8.88
- Change from Baseline in ISS7 at Week 12, LS Mean [24]: −11.00
- Change from Baseline in ISS7 at Week 12, LS Mean Diff vs. placebo [24]: −7.52
